Results: publication PMC12566971, “Polyprenylated Acylphloroglucinols from Hypericum rochelii and Hypericum olympicum—Cytotoxic Effects on Non-Tumorigenic Cell Lines and Antibacterial Potential” (Pharmaceuticals, 2025)
Where “and” joins values, the source holds several entries; their conditions need not be identical. Identical values can stand only once. Like-named read-outs stand apart in the source and are kept apart here.

Key:
[1] = test system: Methicillin-Resistant S. aureus (MRSA); test: MIC and MBC evaluation (broth microdilution, agar plate assay); assay type: cell-based, Staphylococcus aureus
Method: The MIC and MBC assessment on the pathogenic bacteria and the candidate probiotic lactic acid bacteria was carried out by the broth microdilution assay (BMD) and the agar plate assay, respectively, as described in [4]. The metabolic (dehydrogenase) activity of the lactic acid bacteria was assessed as described in [4].
P. aeruginosa PAO1 ATCC 15692 was purchased from the American Type Cell Culture Collection (ATCC, Manassas, VA, USA). S. mutans DSM 20523 was bought from the German Collection of Microorganisms and Cell Cultures (DSMZ GmbH, Braunschweig, Germany). All other bacteria and strains were purchased as described in [4].

CCL-1 cells = test: Colony-forming unit assay; assay type: cell-based, murine; conditions: for Percentage of colonies, CCL-1: untreated control = 100%
Method: The CFU was also performed according to ISO 10993-5 [56]. Briefly, the cell lines were seeded at a concentration like for the MTT assay in 6-well plates, treated with the chosen agents and left for a 48 h exposure. Then, the cells were trypsinized, and pre-calculated 20 to 100 µL from the cell suspension was added to a sterile Roswell Park Memorial Institute (RPMI) medium (RPMI-A, Capricorn Scientific), containing 20% of the respective cell culture medium for each cell line but with a final concentration of FBS and L-glutamine of 40–42% and 0.8–1.2 mM, respectively, 0.2% NaHCO3 (S6297, Merck Sigma-Aldrich, Saint Louis, MI, USA), and 0.8% methylcellulose (M0512, Merck Sigma-Aldrich) for viscosity. The viscous cell solution was vortexed for 10 s and dispensed in an equal number of cells per well in 6-well plates (1.2 mL per well) in triplicate for each concentration of treatment. HaCaT and HEK-293 were seeded at a concentration of 2500 cells per mL, CCL-1 and HEPG2—2000 cells per mL, and HGF—1000 cells per mL. The plates were incubated for 6 to 10 days, and when the colonies reached 20 to 50 cells per colony, 100 µL MTT salt solution was added to each well. After half an hour, the stained colonies were counted manually using a microscope.

icaA gene in MRSA = test: Real-time PCR, relative gene expression; assay type: cell-based, Staphylococcus aureus; conditions: control = 1
Method: (§1) The preparation of the samples for the RNA isolation was carried out as for the biofilm assay. RNA from the treated samples and the untreated positive MRSA control was isolated with the help of the Environmental DNA & RNA Purification Kit (E3572, EURx Ltd., Gdańsk, Poland). […] A total of 50 µL lysozyme (20 mg/mL) from chicken egg white (L6876, Merck Sigma-Aldrich) and 10 µL lysostaphin (L4402, Merck Sigma-Aldrich) from Staphylococcus staphylolyticus (200 U/mL) were added per sample. […] The samples, being bacterial, were subjected to cDNA synthesis using random hexamer primers and reverse transcriptase enzymes. The obtained cDNA samples were stored at −80 °C and used for real-time PCR.
(§2) For normalization of the data, the rho gene was used as a housekeeping gene.

icaD gene in MRSA = test: Real-time PCR, relative gene expression; assay type: cell-based, Staphylococcus aureus; conditions: control = 1
Method: as §1, §2

HGF cells = test: Western blot for autophagy proteins Atg5, Atg7; assay type: cell-based, human; conditions: MIC for S. aureus, relative to untreated control
Method: For Western blot, CCL-1 and HGF cell lines were chosen, and they were seeded in either 6-well plates or 55 mm Petri dishes suitable for cell culture. They were treated with an exposure time of 24 h in an incubator (Panasonic MCO-18AC, Panasonic Healthcare Ltd., […], Japan). […] Hans-Jörg Eibl. In addition, a higher concentration of an […] added to one of the tests for comparison. The samples were trypsinized, collected, washed with PBS (TS1101, HiMedia, Mumbai, India), centrifuged, and frozen at -80 °C if storage was necessary. Then they were lysed on ice with a buffer containing 100 mM Tris-HCl (648313, Sigma-Aldrich, St. Louis, MO, USA) at pH 8.0, 4% sodium dodecyl sulfate (SDS, […], Sigma-Aldrich), 20% glycerol (49779, Sigma-Aldrich), 1% Na3VO4 (450243, Sigma-Aldrich), 200 mM dithiothreitol (DTT, 3483-12-3, Sigma-Aldrich, Burlington, MA, USA) supplemented with protease inhibitor (05892970001, Roche). The cell lysate was heated to boiling for 15 min, then centrifuged at 13,000 rpm for 10 min at 4 °C. Lysates were subjected to denaturing SDS polyacrylamide gel electrophoresis on acrylamide 4-20% gradient Mini-PROTEAN® TGXTM Stain-Free gels (4568094, Bio-Rad Laboratories, Hercules, CA, USA). […] Densitometric calculation and analysis was performed with Quantity One software version 4.6.9 (Bio-Rad Laboratories).

MRSA biofilm = conditions: assessed and published previously, ref [29], cited from earlier work

**Q.** For `CC(C)=CCCC1(C)C(CC=C(C)C)CC2C(=O)C1(C(=O)C(C)C)C(=O)C(CC=C(C)C)=C2O` (stereo not shown) [Olympiforin B], which MBC ([1]; Staphylococcus aureus, MRSA) is on record?
**A.** The MBC was 68 µg/mL and 121 µM.

**Q.** What about the “MBC/MIC ratio, MRSA” value ([1]; bactericidal if ≤ 4, bacteriostatic if > 4) of the same compound?
**A.** The value was 68.

**Q.** And the “Colonies per well for CCL-1 cells” value (CCL-1 cells; 1/2 × IC50, 48 h exposure)?
**A.** The value was 167.

**Q.** What about the “Percentage of colonies, CCL-1” value (CCL-1 cells; 1/2 × IC50) of the same compound?
**A.** Its value is 106%.

**Q.** And the “Colonies per well for CCL-1 cells” value (CCL-1 cells; 2 × IC50, 48 h exposure)?
**A.** The value was 61.

**Q.** What about the “Percentage of colonies, CCL-1” value (CCL-1 cells; 2 × IC50) of the same compound?
**A.** The value was 39%.

**Q.** And the “Colonies per well for CCL-1 cells” value (CCL-1 cells; IC50, 48 h exposure)?
**A.** The value was 62.

**Q.** And the “Percentage of colonies, CCL-1” value (CCL-1 cells; IC50)?
**A.** Its value is 40%.

**Q.** What about the “Relative gene expression, icaA” value (icaA gene in MRSA; 1/8 × MIC) of the same compound?
**A.** The value was 0.37.

**Q.** And the “Relative gene expression, icaA” value (icaA gene in MRSA; 1/16 × MIC)?
**A.** Its value is 0.53.

**Q.** And the “Relative gene expression, icaA” value (icaA gene in MRSA; 1/32 × MIC)?
**A.** Its value is 0.28.

**Q.** What about the “Relative gene expression, icaD” value (icaD gene in MRSA; 1/8 × MIC) of the same compound?
**A.** Its value is 0.41.

**Q.** And the “Relative gene expression, icaD” value (icaD gene in MRSA; 1/16 × MIC)?
**A.** The value was 0.82.

**Q.** And the “Relative gene expression, icaD” value (icaD gene in MRSA; 1/32 × MIC)?
**A.** The value was 0.95.

**Q.** What about the “Increase of Atg5 and Atg7 proteins” value (HGF cells) of the same compound?
**A.** Its value is 106–135%.

**Q.** What about the “Median Biofilm Inhibitory Concentration (MBIC50), MRSA” value (MRSA biofilm) of the same compound?
**A.** The value was 0.05 (0.03 to 0.07) µg/mL.

**Q.** What about the “Minimum Biofilm Inhibitory Concentration (MBIC), MRSA” value (MRSA biofilm) of the same compound?
**A.** Its value is 0.5 (1/2 × MIC) µg/mL and 1.07 µM.

**Q.** And the “Minimum Biofilm Inhibitory Concentration (MBIC), MRSA” value (MRSA biofilm; listed as olympiforin B)?
**A.** The value was 0.5 µg/mL.

**Q.** And the IC50 (MRSA biofilm; read-out: Median Biofilm Inhibitory Concentration (MBIC50), MRSA)?
**A.** Its IC50 is 120 nM.
